Measurements published in US5420289A, “Substituted indole-, indene-, pyranoindole- and tetrahydrocarbazole-alkanoic acid derivatives as inhibitors of PLA2 and lipoxygenase” (American Home Products Corporation, priority 1993, dated 1995).

Experiments:
[1] = test system: 5-lipoxygenase in human whole blood; test: inhibition of 5-lipoxygenase in human whole blood (Example 79); format: cell-based; settings: for % Inhibition of LTB4: 25 μM; for IC50: human whole blood, read-out: IC50 (inhibition of LTB4)
Method: The assay of this Example measures the ability of the compounds tested to inhibit 5-lipoxygenase in human whole blood.
(§1) This assay is carried out as follows:
Blood is obtained in 50-100 ml quantities from male donors. White blood cell counts and differentials are made. Two ml of blood are placed in a 15 ml polypropylene test tube. Compounds are solubilized in dimethylsulfoxide and diluted 1:10 in 10% bovine serum albumin in phosphate buffered saline, pH 7.4 resulting in a final dimethylsulfoxide concentration of 0.1% in the blood. Then, compounds are added to the blood in a shaking water bath at 37° C. for 10 minutes prior to the addition of […] calcium ionophore (A23187; Sigma). After ionophore administration, whole blood samples are mixed and incubated for 20 minutes at 37° C. in a shaking water bath. Incubation is terminated by placing samples in an ice bath and immediately adding ethylene glycol-bis-(b-aminoethyl ether)-N,N,N',N'-tetraacetic acid (10 mM). Samples are mixed and centrifuged at 1200 × g for 15 minutes at 4° C. Preparation of samples for evaluation by RIA or ELISA is carried out by the following protocol. Plasma is removed from sample tubes, placed in 15 ml polypropylene test tubes containing 8 ml methanol, and then vortexed to precipitate protein. Samples are stored at -70° C. overnight. The next day, samples are centrifuged at 200 × g for 15 minutes at 4° C. to pellet the precipitate. Samples are dried in a Savant speed vac concentrator, reconstituted to original volume with ice cold RIA or ELISA buffer, and stored at -70° C. until assayed. The assay for eicosanoids (LTB4, T×B2, and PGE2) is performed as described by the manufacturer of the [^3 H]-RIA kit or ELISA kit (LTB4 -Amersham, TxB2 and PGE2 - Caymen Chemical).
The total eicosanoid level in 2 ml of blood is calculated and reported as ng/10^6 neutrophils. […] Drug effects are expressed as percent change from control values.
Compounds tested in vitro are solubilized in dimethylsulfoxide and diluted 1:10 in 10% bovine serum albumin in phosphate buffer saline resulting in a final dimethylsulfoxide concentration of 0.1% i n the blood.

[2] = target: T1, human synovial fluid PLA2 (Homo sapiens, UniProt P14555); test: in vitro isolated phospholipase A2 assay, human synovial fluid PLA2 (Example 74); format: biochemical; set-up: inhibition / % Inhibition, HSF (human synovial fluid): dose or concentration left out as unconfirmed; settings: read-out: % Inhibition, HSF (human synovial fluid)
T1 sequence (P14555 21-144): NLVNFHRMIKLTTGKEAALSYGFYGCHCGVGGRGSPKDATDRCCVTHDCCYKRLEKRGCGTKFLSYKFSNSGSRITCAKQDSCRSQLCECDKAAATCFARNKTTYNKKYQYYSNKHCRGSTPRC
Method: (§2) The compounds of the invention are tested in an in vitro isolated phospholipase A2 assay to determine the ability of the test compounds to inhibit the release of arachidonic acid from an arachidonic acid-containing substrate by the action of phospholipase A2 enzyme from human and non-human sources.
as §1
(§3) Into a 15 mL polypropylene tube are added the following:
(§4) ^6 Two human PLA2 enzymes are used:
b) Purified human synovial fluid.
(§5) Incubate the 100mL reaction mixture for 10 minutes at 37° C. in a shaking water bath. The reaction is terminated by the addition of 2 mL tetrahydrofuran, followed by vortexlag. NH2 columns (100 mg/mL--Analytichem International) are conditioned with 0.5 mL tetrahydrofuran followed by 0.5 mL tetrahydrofuran/water (2 mL:0.1 mL, v/v).
(§6) The sample is loaded onto the columns and slowly drawn through them. The hydrolyzed arachidonic acid retained in the columns is eluted therefrom with 1 mL tetrahydrofuran/glacial acetic acid (2%). The arachidonic acid is transferred to scintillation vials and quantitated by b-counting analysis. A "total counts" sample is prepared by pipetting […] ^3 H-arachidonate E. coli directly into a scintillation vial to which is added 1 mL tetrahydrofuran. 10 mL aquasol (scintillation cocktail) is added to all samples. [formula]

human platelet PLA2 = target: T2, human platelet PLA2 (Homo sapiens, UniProt P14555); test: in vitro isolated phospholipase A2 assay, human platelet PLA2 (Example 74); format: biochemical; set-up: dose or concentration left out as unconfirmed; settings: read-out: % Inhibition, HP (human platelet)
T2 construct: Semi-purified human platelet acid extract PLA2; from tissue; host or cells: human platelets (semi-purified acid extract)
T2 sequence (P14555 21-144): T1 sequence (P14555 21-144)
Method: as §2, §1, §3, §4
a) Semi-purified human platelet acid extract PLA2 (in 10 mM
sodium acetate buffer, pH 4.5). Remove protein precipitate by
centrifugation at about 2200 rpm for 10 minutes.
as §5, §6

Compound | inhibition [2] [%] | inhibition (human platelet PLA2) [%] | IC50 [1] [µM] | % Inhibition of LTB4 [1] [%]
CONC(=O)Cc1c(C)n(Cc2ccc(Cl)cc2)c2ccc(OCc3nc4ccccc4s3)cc12 [Example 47, 5-(2-Benzothiazolylmethoxy)-1-[(4-chlorophenyl)methyl]-N-methoxy-2-methyl-1H-indole-3-acetamide hemihydrate.] | 2 | 5 |  | 31
CSc1ccc(Cn2c(C)c(CC(=O)O)c3cc(OCc4nc5ccccc5s4)ccc32)cc1 [Example 54, 5-(2-Benzothiazolylmethoxy)-1-[[4-(methylthio)phenyl]methyl]-2-methyl-1H-indole-3-acetic acid] | 44 | 2 |  | 11
COc1cccc(Cn2c(C)c(CC(=O)O)c3cc(OCc4csc(-c5ccccc5)n4)ccc32)c1 [Example 60, 5-[(2-Phenyl-4-thiazolyl)methoxy)-1-[[(3-methoxy)phenyl]methyl]-2-methyl-1H-indole-3-acetic acid] | 84 | 3 |  | 35
Cc1c(CC(=O)O)c2cc(OCc3nc4ccccc4s3)ccc2n1Cc1ccccc1 [Example 51, 5-(2-Benzothiazolylmethoxy)-1-(phenylmethyl)-2-methyl-1H-indole-3-acetic acid] | 88 | 41 |  | 5
CC(=O)OCCc1c(C)n(Cc2ccccc2)c2ccc(OCc3csc(-c4ccccc4)n3)cc12 [Example 56, 5-[(2-Phenyl-4-thiazolyl)methoxy]-1-(phenylmethyl)-2-methyl-1H-indole-3-ethanol acetate ester] |  | 2 |  | 2
Cc1c(CC(=O)N(C)O)c2cc(OCc3nc4ccccc4s3)ccc2n1Cc1ccc(Cl)cc1 [Example 49, 5-(2-Benzothiazolylmethoxy)-1-[(4-chlorophenyl)methyl]N-hydroxyl-N,2-dimethyl-1H -indole-3-acetamide] | 4 | 6 | 12.3 | 61
Cc1c(CCO)c2cc(OCc3csc(-c4ccccc4)n3)ccc2n1Cc1ccccc1 [Example 55, 5-[(2-Phenyl-4-thiazolyl)methoxy]-1-(phenylmethyl)-2-methyl-1H-indole-3-ethanol] | 4 | 13 |  | 19
Cc1c(CC(=O)NO)c2cc(OCc3nc4ccccc4s3)ccc2n1Cc1ccc(Cl)cc1 [Example 46, 5-(2-Benzothiazolylmethoxy)-1-[(4-chlorophenyl)methyl]-N-hydroxyl-2-methyl-1H-indole-3-acetamide] | 48 | 13 | 14.9 | 30

Further lines, with some results ahead:

inhibition [2] [%] | inhibition (human platelet PLA2) [%] | IC50 [1] [µM] | Compound | % Inhibition of LTB4 [1] [%]
4 | 1 |  | CCOC(=O)Cc1c(C)n(Cc2csc(-c3ccc(Cl)cc3)n2)c2ccc(OCc3csc(-c4ccccc4)n3)cc12 [Example 64, 5-[(2-Phenyl-4-thiazolyl)methoxy]-1-[[2-(4-chlorophenyl)-4-thiazolyl]methyl]-2-methyl-1H-indole-3-acetic acid ethyl ester] | 
30 | 3 |  | Cc1c(CC(=O)O)c2cc(OCc3csc(-c4ccccc4)n3)ccc2n1Cc1ccc(C(C)(C)C)cc1 [Example 62, 5-[(2-Phenyl-4-thiazolyl)methoxy]-1-[[4-(1,1-dimethylethyl)phenyl]methyl]-2-methyl-1H-indole-3-acetic acid hemihydrate] | 
0 | 2 |  | CCOC(=O)Cc1c(C)n(Cc2ccc(Cl)cc2)c2ccc(OCc3csc(-c4ccc(Cl)cc4)n3)cc12 [Example 68, 5-[[2-(4-Chlorophenyl)-4-thiazolyl]methoxy]-1-[(4-chlorophenyl)methyl]-2-methyl-1H-indole-3-acetic acid ethyl ester] | 
89 | 85 |  | Cc1c(CC(=O)O)c2cc(OCc3csc(-c4ccccc4)n3)ccc2n1Cc1csc(-c2ccc(Cl)cc2)n1 [Example 65, 5-[(2-Phenyl-4-thiazolyl)methoxy]-1-[[2-(4-chlorophenyl)-4-thiazolyl]methyl]-2-methyl-1H-indole-3-acetic acid] | 22
54 | 8 |  | Cc1c(CC(=O)O)c2cc(OCc3csc(-c4ccc(Cl)cc4)n3)ccc2n1Cc1ccc(Cl)cc1 [Example 69, 5-[[2-(4-Chlorophenyl)-4-thiazolyl]methoxy]-1-[(4chlorophenyl)methyl]-2-methyl-1H-indole-3-acetic acid] | 
6 | 1 |  | CCOC(=O)Cc1c(C)n(Cc2ccc3ccccc3c2)c2ccc(OCc3csc(-c4ccccc4)n3)cc12 [Example 66, 5-[(2-Phenyl-4-thiazolyl)methoxy]-1-(2-naphthalenylmethyl)-2-methyl-1H-indole-3acetic acid ethyl ester] | 
91 | 44 |  | Cc1c(CC(=O)O)c2cc(OCc3coc(-c4ccccc4)n3)ccc2n1Cc1ccccc1 [Example 71, 5-[(2-Phenyl-4-oxazolyl)methoxy]-1-(phenylmethyl)-2-methyl-1H-indole-3-acetic acid hemihydrate.] | 
